According to BindingDB's records for doi:10.1021/cb900083m (Genentech, 2009):

Experiments:
[1] = molecular target: T1, Baculoviral IAP repeat-containing protein 3 [255-322] (Homo sapiens, UniProt Q13489); test: Fluorescence Polarization Affinity Measurements; settings: pH 7.2; 22 °C
T1 construct: 255-322
Procedure: (§1) Samples for fluorescence polarization affinity measurements were prepared by addition of serial dilutions of […] to each well containing antagonist and polarization probe in the buffer. Samples were read after 30-min incubation. Fluorescence polarization values were plotted as a function of the antagonist concentration, and the IC50 values were obtained by fitting the data to a four-parameter equation using KaleidaGraph software. Ki values for the antagonists were determined from the IC50 values.

[2] = molecular target: T2, Baculoviral IAP repeat-containing protein 2 [269-336] (Homo sapiens, UniProt Q13490); test: Fluorescence Polarization Affinity Measurements; settings: pH 7.2; 22 °C
T2 construct: 269-336
T2 sequence (Q13490 269-336): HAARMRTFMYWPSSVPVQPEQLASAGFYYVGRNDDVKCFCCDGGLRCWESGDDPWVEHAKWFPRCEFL
Procedure: as §1

[3] = Samples for fluorescence polarization affinity measurements were prepared by addition of serial dilutions of […] to each well containing antagonist and polarization probe in the buffer. Samples were read after 30-min incubation. Fluorescence polarization values were plotted as a function of the antagonist concentra; settings: pH 7.2

T1 sequence (Q13489 255-322): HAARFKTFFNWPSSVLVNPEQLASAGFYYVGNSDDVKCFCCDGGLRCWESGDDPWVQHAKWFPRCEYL

| Ki [1] | Ki [2] | Ki [3] | SMILES |
| --- | --- | --- | --- |
| 96 nM | 36 nM | 33 nM | CN[C@@H](C)C(=O)N[C@H](C(=O)N1CCC[C@H]1c1nc2c(-c3ccccc3Cl)nccc2s1)C1CCOCC1 [PS-1] |
| 114 nM | 37 nM | 5050 nM | CN[C@@H](C)C(=O)N[C@H](C(=O)N1CCC[C@H]1C(=O)Nc1ccccc1-c1ncccn1)C1CCCCC1 [CS-2] |
| 52 nM | 10 nM | 2400 nM | CN[C@@H](C)C(=O)N[C@H](C(=O)N1CC[C@H](C)[C@H]1C(=O)Nc1cc(C)nn1-c1ccccc1)C1CCCCC1 [CS-1] |
| > 34000 nM | > 34000 nM | > 34000 nM | CN[C@H](C)C(=O)N[C@@H](C(=O)N1CCC[C@@H]1c1nc2c(-c3ccccc3Cl)nccc2s1)C1CCOCC1 [ent-PS-1] |
